The results in this text go back to patent publication US20220317138A1, “METHODS FOR DETERMINING THE CONCENTRATION OF A CARBAPENEM ANTIBIOTIC IN A BIOLOGICAL SAMPLE” (priority 2019, published 2022).

The target in data set [1] is beta-lactamase class D OXA-48 (Klebsiella pneumoniae, UniProt Q6XEC0). Format: biochemical. Particulars: for Accuracy <> (average) / [Meropenem] <> (average): average of 5 replicates. The text has this:
The specificity (or selectivity) of the method according to an embodiment of the invention is defined as the ability of the method to measure the concentration of a carbapenem antibiotic (such as meropenem) in presence of an excess of another beta-lactam antibiotic (second beta-lactam) currently used in ICUs (see Table 4).
To determine the specificity of the method illustrating the invention for carbapenem antibiotics, in particular meropenem, versus other beta-lactam antibiotics, stock-solutions of second beta-lactam antibiotics were prepared in water.
An excess of a second beta-lactam concentration of up to 10 times the concentration of meropenem was used.

Data set [2] addresses Imp1 beta-lactamase (class B) (Serratia marcescens, UniProt P52699). Format: biochemical. The settings on record: nitrocefin reporter.
Data set [3] has as its target P99 beta-lactamase (class C) (Enterobacter cloacae, UniProt P05364). Format: biochemical. Particulars: nitrocefin reporter.
In data set [4] the test system is AmpCHD beta-lactamase (class C). Nature of the data set: Screening of beta-lactamases by competition, nitrocefin as reporter substrate. Format: biochemical.
Data set [5] relates to Imp4 beta-lactamase (class B). The data set is described as above. Format: biochemical.
Data set [6] relates to Per2 beta-lactamase (class A). The description is as above. Format: biochemical.
The nature of data set [7]: Activity loss of the beta-lactamase in 1 h. Format: physicochemical. Particulars: enzyme activity.
Setting [8] is: Meropenem 1.2 mg/L, second β-lactam 10.0 mg/L (8.4 times excess).
Where [9] appears, read: Meropenem 20.0 mg/L, second β-lactam 200.0 mg/L (10 times excess).

Like-named read-outs stand apart in the source and are kept apart here.

P99 beta-lactamase (class C), sequence (P05364 21-381): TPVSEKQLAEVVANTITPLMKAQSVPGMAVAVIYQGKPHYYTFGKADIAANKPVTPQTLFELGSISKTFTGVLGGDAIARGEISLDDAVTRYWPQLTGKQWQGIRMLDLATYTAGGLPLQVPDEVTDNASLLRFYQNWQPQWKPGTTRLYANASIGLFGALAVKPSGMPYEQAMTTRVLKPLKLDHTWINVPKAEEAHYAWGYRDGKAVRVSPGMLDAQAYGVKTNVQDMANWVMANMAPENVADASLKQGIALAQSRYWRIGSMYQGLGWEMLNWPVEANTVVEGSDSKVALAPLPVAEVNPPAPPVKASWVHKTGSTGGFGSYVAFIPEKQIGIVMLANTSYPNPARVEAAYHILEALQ
Imp1 beta-lactamase (class B), sequence (P52699 19-246 limits assumed): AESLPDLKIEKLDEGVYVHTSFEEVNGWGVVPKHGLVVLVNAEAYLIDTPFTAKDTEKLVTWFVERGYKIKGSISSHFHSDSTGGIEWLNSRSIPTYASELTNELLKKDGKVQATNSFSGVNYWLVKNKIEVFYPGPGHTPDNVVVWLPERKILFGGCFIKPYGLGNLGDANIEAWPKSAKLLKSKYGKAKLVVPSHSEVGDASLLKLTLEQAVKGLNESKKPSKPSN

With `CO/N=C(\C(=O)N[C@@H]1C(=O)N2C(C(=O)O)=C(COC(C)=O)CS[C@H]12)c1csc(N)n1` [Cefotaxim ® Sandoz], in data set [1] (setting [8]), the “Accuracy <> (average)” value came to 111%, the “[Meropenem] <> (average)” value turned out to be 1.3 mg/L, the “Accuracy Replicate 1” value is given as 109% and the “[Meropenem] Replicate 1” value was 1.3 mg/L. In addition, in data set [1] (setting [8]), the “Accuracy Replicate 2” value came out at 116%, the “[Meropenem] Replicate 2” value was 1.3 mg/L, the “Accuracy Replicate 3” value stood at 107% and the “[Meropenem] Replicate 3” value is 1.2 mg/L. In data set [1] (setting [8]), the “Accuracy Replicate 4” value came out at 110%, the “[Meropenem] Replicate 4” value worked out at 1.3 mg/L, the “Accuracy Replicate 5” value is on record as 115% and the “[Meropenem] Replicate 5” value stood at 1.3 mg/L. Further, in data set [1] (setting [9]), the “Accuracy <> (average)” value was 92%, the “[Meropenem] <> (average)” value is 20.5 mg/L, the “Accuracy Replicate 1” value amounted to 93% and the “[Meropenem] Replicate 1” value came out at 20.8 mg/L. Besides, in data set [1] (setting [9]), the “Accuracy Replicate 2” value worked out at 94%, the “[Meropenem] Replicate 2” value is recorded as 20.9 mg/L, the “Accuracy Replicate 3” value turned out to be 91% and the “[Meropenem] Replicate 3” value came out at 20.2 mg/L. In data set [1] (setting [9]), the “Accuracy Replicate 4” value was determined as 91%, the “[Meropenem] Replicate 4” value was 20.2 mg/L, the “Accuracy Replicate 5” value came out at 91% and the “[Meropenem] Replicate 5” value was 20.2 mg/L. For the same molecule, the “hydrolysis rate symbol, (Vmax/V0)-1” value in data set [2] was “+ (0.1-1)”. Further, in data set [3], the “hydrolysis rate symbol, (Vmax/V0)-1” value was “++++ (>100)”. In data set [4], the “hydrolysis rate symbol, (Vmax/V0)-1” value is “+ (0.1-1)”. Also, the “hydrolysis rate symbol, (Vmax/V0)-1” value in data set [5] was “+ (0.1-1)”.
For `Cc1onc(-c2ccccc2)c1C(=O)N[C@@H]1C(=O)N2[C@@H]1SC(C)(C)[C@@H]2C(=O)O` [Penstapho ®], the “hydrolysis rate symbol, (Vmax/V0)-1” value in data set [6] is listed as “++ (1-10)”. In data set [1] (setting [8]), the “Accuracy <> (average)” value came out at 119%, the “[Meropenem] <> (average)” value was 1.4 mg/L, the “Accuracy Replicate 1” value is recorded as 115% and the “[Meropenem] Replicate 1” value worked out at 1.3 mg/L. In data set [1] (setting [8]), the “Accuracy Replicate 2” value was determined as 123%, the “[Meropenem] Replicate 2” value is on record as 1.4 mg/L, the “Accuracy Replicate 3” value is listed as 121% and the “[Meropenem] Replicate 3” value came out at 1.4 mg/L. Also, in data set [1] (setting [8]), the “Accuracy Replicate 4” value is given as 122%, the “[Meropenem] Replicate 4” value was 1.4 mg/L, the “Accuracy Replicate 5” value was 116% and the “[Meropenem] Replicate 5” value is 1.3 mg/L. Besides, in data set [1] (setting [9]), the “Accuracy <> (average)” value turned out to be 103%, the “[Meropenem] <> (average)” value stood at 22.9 mg/L, the “Accuracy Replicate 1” value was found to be 98% and the “[Meropenem] Replicate 1” value stood at 21.8 mg/L. In addition, in data set [1] (setting [9]), the “Accuracy Replicate 2” value was 104%, the “[Meropenem] Replicate 2” value was found to be 23.2 mg/L, the “Accuracy Replicate 3” value came out at 104% and the “[Meropenem] Replicate 3” value was 23.1 mg/L. Also, in data set [1] (setting [9]), the “Accuracy Replicate 4” value is reported as 107%, the “[Meropenem] Replicate 4” value is 23.8 mg/L, the “Accuracy Replicate 5” value is recorded as 102% and the “[Meropenem] Replicate 5” value was determined as 22.7 mg/L. Also, the “hydrolysis rate symbol, (Vmax/V0)-1” value in data set [3] is listed as “++++ (>100)”. Besides, the “hydrolysis rate symbol, (Vmax/V0)-1” value in data set [4] is “++ (1-10)”.
Regarding `CC1(C)S[C@@H]2[C@H](NC(=O)[C@H](N)c3ccccc3)C(=O)N2[C@H]1C(=O)O` [Pentrexyl ®], the “hydrolysis rate symbol, (Vmax/V0)-1” value in data set [6] is on record as “+ (0.1-1)”. Besides, in data set [1] (setting [8]), the “Accuracy <> (average)” value is 112%, the “[Meropenem] <> (average)” value is listed as 1.3 mg/L, the “Accuracy Replicate 1” value worked out at 122% and the “[Meropenem] Replicate 1” value was determined as 1.4 mg/L. In data set [1] (setting [8]), the “Accuracy Replicate 2” value is 112%, the “[Meropenem] Replicate 2” value worked out at 1.3 mg/L, the “Accuracy Replicate 3” value was found to be 110% and the “[Meropenem] Replicate 3” value came to 1.3 mg/L. Further, in data set [1] (setting [8]), the “Accuracy Replicate 4” value stood at 109%, the “[Meropenem] Replicate 4” value is listed as 1.3 mg/L, the “Accuracy Replicate 5” value is given as 108% and the “[Meropenem] Replicate 5” value was found to be 1.3 mg/L. Also, in data set [1] (setting [9]), the “Accuracy <> (average)” value worked out at 95%, the “[Meropenem] <> (average)” value turned out to be 21.1 mg/L, the “Accuracy Replicate 1” value was determined as 92% and the “[Meropenem] Replicate 1” value was determined as 20.5 mg/L. For the same molecule, in data set [1] (setting [9]), the “Accuracy Replicate 2” value stood at 93%, the “[Meropenem] Replicate 2” value turned out to be 20.8 mg/L, the “Accuracy Replicate 3” value is given as 96% and the “[Meropenem] Replicate 3” value stood at 21.4 mg/L. In data set [1] (setting [9]), the “Accuracy Replicate 4” value is 95%, the “[Meropenem] Replicate 4” value is recorded as 21.3 mg/L, the “Accuracy Replicate 5” value is reported as 98% and the “[Meropenem] Replicate 5” value was determined as 21.8 mg/L. Further, the “hydrolysis rate symbol, (Vmax/V0)-1” value in data set [3] is reported as “++ (1-10)”. In data set [4], the “hydrolysis rate symbol, (Vmax/V0)-1” value was “+++ (10-100)”.
For the molecule `CO/N=C(\C(=O)N[C@@H]1C(=O)N2C(C(=O)O)=C(COC(N)=O)CS[C@H]12)c1ccco1` [Zinacef ®], in data set [1] (setting [8]), the “Accuracy <> (average)” value is given as 104%, the “[Meropenem] <> (average)” value was determined as 1.2 mg/L, the “Accuracy Replicate 1” value came out at 108% and the “[Meropenem] Replicate 1” value is 1.3 mg/L. Besides, in data set [1] (setting [8]), the “Accuracy Replicate 2” value came to 97%, the “[Meropenem] Replicate 2” value came out at 1.1 mg/L, the “Accuracy Replicate 3” value turned out to be 100% and the “[Meropenem] Replicate 3” value came out at 1.2 mg/L. In data set [1] (setting [8]), the “Accuracy Replicate 4” value was 104%, the “[Meropenem] Replicate 4” value was determined as 1.2 mg/L, the “Accuracy Replicate 5” value is recorded as 111% and the “[Meropenem] Replicate 5” value is on record as 1.3 mg/L. In data set [1] (setting [9]), the “Accuracy <> (average)” value is on record as 98%, the “[Meropenem] <> (average)” value stood at 21.9 mg/L, the “Accuracy Replicate 1” value is 98% and the “[Meropenem] Replicate 1” value was 21.8 mg/L. Also, in data set [1] (setting [9]), the “Accuracy Replicate 2” value is 98%, the “[Meropenem] Replicate 2” value stood at 21.9 mg/L, the “Accuracy Replicate 3” value came to 95% and the “[Meropenem] Replicate 3” value amounted to 21.2 mg/L. In data set [1] (setting [9]), the “Accuracy Replicate 4” value is on record as 101%, the “[Meropenem] Replicate 4” value is on record as 22.4 mg/L, the “Accuracy Replicate 5” value stood at 99% and the “[Meropenem] Replicate 5” value is 22.0 mg/L. For the same molecule, the “hydrolysis rate symbol, (Vmax/V0)-1” value in data set [2] is recorded as “+ (0.1-1)”. Further, the “hydrolysis rate symbol, (Vmax/V0)-1” value in data set [3] was “++++ (>100)”. Besides, the “hydrolysis rate symbol, (Vmax/V0)-1” value in data set [4] is on record as “+ (0.1-1)”.

B1: Oxa48: beta-lactamase class D OXA-48 from Klebsiella pneumoniae, used as biosensor (protein, listed as Klebsiella pneumoniae)
chain: MRVLALSAVFLVASIIGMPAVAKEWQENKSWNAHFTEHKSQGVVVLWNENKQQGFTNNLKRANQAFLPASTFKIPNSLIALDLGVVKDEHQVFKWDGQTRDIATWNRDHNLITAMKYSVVPVYQEFARQIGEARMSKMLHAFDYGNEDISGNVDSFWLDGGIRISATEQISFLRKLYHNKLHVSERSQRIVKQAMLTEANGDYIIRAKTGYSTRIEPKIGWWVGWVELDDNVWFFAMNMDMPTSDGLGLRQAITKEVLKQEKIIP
modifications: PEPTIDE (1)..(22) SIGNAL PEPTIDE
notes: beta-lactamase class D OXA-48 from Klebsiella pneumoniae, used as biosensor
With B1, in data set [7], the “Activity loss in 1 h” value worked out at 0%.

B2: Kpc2: class A beta-lactamase screened (protein, UniProt Q9F663 25-293, looked up)
Carbapenem-hydrolyzing …: LTNLVAEPFAKLEQDFGGSIGVYAMDTGSGATVSYRAEERFPLCSSFKGFLAAAVLARSQQQAGLLDTPIRYGKNALVPWSPISEKYLTTGMTVAELSAAAVQYSDNAAANLLLKELGGPAGLTAFMRSIGDTTFRLDRWELELNSAIPGDARDTSSPRAVTESLQKLTLGSALAAPQRQQFVDWLKGNTTGNHRIRAAVPADWAVGDKTGTCGVYGTANDYAVVWPTGRAPIVLAVYTRAPNKDDKHSEAVIAAAARLALEGLGVNGQ
In the case of B2, the “Activity loss in 1 h” value in data set [7] is given as 2%.

B3: Ndm1: class B beta-lactamase screened (protein, UniProt C7C422 29-270, looked up)
Metallo-beta-lactamase type 2: GEIRPTIGQQMETGDQRFGDLVFRQLAPNVWQHTSYLDMPGFGAVASNGLIVRDGGRVLVVDTAWTDDQTAQILNWIKQEINLPVALAVVTHAHQDKMGGMDALHAAGIATYANALSNQLAPQEGMVAAQHSLTFAANGWVEPATAPNFGPLKVFYPGPGHTSDNITVGIDGTDIAFGGCLIKDSKAKSLGNLGDADTEHYAASARAFGAAFPKASMIVMSHSAPDSRAAITHTARMADKLR
B3: the “Activity loss in 1 h” value in data set [7] is recorded as 0%.
